{"source": "patent US20110020837A1", "about": "“Method for isolating or identifying a target protein interacting with a lipid in a cell” (Universiteit Utrecht Holding B.V., priority 2009, published 2011)", "key": {"[1]": {"assay": "Stability of terminal alkyne towards UV irradiation, 1H-NMR analysis", "assay_type": "physicochemical", "settings": "irradiation for 5 minutes"}, "[2]": {"assay": "UV activation of the photoactivatable diazirine ring, loss of absorption at 349.5 nm", "assay_type": "physicochemical", "settings": "ethanolic solution, thirty seconds of irradiation, 200 W mercury lamp, filter below 350 nm", "protocol": "FIG. 9. Panel A, Activation of the photoactivatable diazirine ring was optimized by exposing an ethanolic solution of 10-azi-stearic acid (10-ASA) under the described conditions to UV-light for the indicated time. Absorbance at 349.5 nm was measured to monitor decay of 10-ASA. Panel B, A solution of defatted BSA (1 mg/ml) was irradiated under the same conditions and analyzed by SDS-PAGE.\nSamples were irradiated applying a 200 W high pressure mercury lamp (Oriel Photomax) equipped with a PYREX® glass filter to remove wavelengths below 350 nm. Samples were placed on ice at a distance from 35 cm from the light source. In order to optimize cross-linking conditions we made use of the characteristic absorption of the diazirine group (FIG. 8). An ethanolic solution of 10-azi stearic acid (10-ASA) was irradiated under the conditions described above and the loss of absorption at 349.5 nm was monitored (FIG. 9, Panel A). Thirty seconds of irradiation activated 95% of the photoactivatable group. Samples were UV irradiated for 1 minute. To exclude degradation of proteins under these conditions a 1 mg/ml solution of BSA was irradiated up to 5 minutes and analyzed by gel electrophoresis and subsequent Coomassie staining (FIG. 9, Panel B). […]"}, "HeLa cells": {"tested_on": "HeLa cells", "assay": "Cell imaging of bifunctional lipids: UV fixation, lipid extraction, alexa-azide click, fluorescent microscopy", "assay_type": "cell-based", "settings": "UV irradiated versus non-irradiated, non-crosslinked lipids extracted", "protocol": "Microscopy of lipids requires a fluorescent tag on the lipid. In contrast to polyene lipids, most fluorescent tags interfere with the properties of thus labeled lipids.^[24] […] Lipids are highly dynamic and their chemical fixation remained difficult. […] To this end, C15pacFA was administered to cells. Lipids were fixed in vivo by UV-irradiation followed by the fixation of cells with methanol. In order to remove non-protein-crosslinked lipids, cells were extracted according to Bligh and Dyer.^[27] Samples were subjected to click reactions with alexa-azide and lipids were visualized by fluorescent microscopy.\nHeLa cells grown on cover slips in a 24-well plate were labeled for 1 hour in 0.5 ml DMEM 4.5 g/liter glucose supplemented with 10% delipidated FCS and 100 μM C15pacFA. The cells were washed with 0.5 mL PBS, overlaid with 0.5 mL PBS and UV irradiated on ice for 2 minutes. After UV irradiation the cells were fixed with 0.5 mL of −20° C. cold MeOH for 10 minutes. After fixation cells were subjected to one, two or three rounds of lipid extraction according to Bligh and Dyer using 0.5 ml of CHCl3/MeOH/AcOH 10:55:0.75 v/v for each extraction (for each extraction coverslips were incubated for 1 minute at room temperature). The coverslips were washed with 0.5 mL PBS and then subjected to click reactions. […]"}, "CHO-CGalT cells [3]": {"tested_on": "CHO-CGalT cells", "assay": "Incorporation of pacFAs into cellular lipids, lipid extracts analysed by nano-ESI-MS/MS", "assay_type": "cell-based", "settings": "100 μM, 16 hours", "protocol": "FIGS. 7A and 7B. Mass spectrometric analysis of photoactivatable and clickable PC species. CHO-CGaIT cells (−5×10^7 cells) were labeled for 16 hours in delipidated medium in the absence (upper panel) or presence (lower panel) of 100 μM (FIG. 7A) C15pacFA or (FIG. 7B) C16pacFA. Lipids were extracted, dried and subsequently dissolved in 5 mM ammonium acetate in MeOH and subjected to nano-ESI-MS/MS. Shown are PREC184 spectra visualizing choline phosphate-containing lipids. Abbreviations give the total number of carbon atoms of fatty acids attached and the numbers of double bonds within the fatty acid. Transparent bars highlight PC species containing the pacFAs.\nGiven the small size of fatty acids, additional functional groups might have an impact on their physical properties. Due to the rigidity of the triple bond pacFAs are slightly kinked in the end and their overall length is shorter compared with their corresponding natural counterparts. […] Phosphatidylcholine (PC) is the major lipid class in eukaryotic cells. To analyze choline phosphate containing species, a precursor ion scanning procedure was employed selecting for fragments with a mass of 184 Da. […] UV irradiation of the lipid extracts gave rise to peaks with a mass 28 Da lower than the corresponding pacPC species due to the release of nitrogen followed by either an α-hydrogen migration or an intramolecular crosslink of the carbene (data not shown).^[4] […] SM16:0 is the major SM species in CHO cells. Its biosynthesis requires two palmitoyl-CoA: (i) as a precursor of the sphingoid backbone and (ii) for its N-acylation. The length of the N-acylated fatty acid is strictly controlled since there is no SM14:0 and only a minor amount of SM18:0 in CHO cells.^[5] Therefore, we assumed that the chain length of C15pacFA might interfere with its incorporation into SM. […]\nLipids were extracted according to Bligh and Dyer and analyzed as described previously (K. Retra, O. B. Bleijerveld, R. A. van Gestel, A. G. Tielens, J. J. van Hellemond, J. F. Brouwers, Rapid Commun. Mass Spectrom. 2008, 22, 1853.^[20]"}, "[4]": {"target": "defatted bovine serum albumin (BSA) (Bos taurus, UniProt P02769)", "sequence (P02769 25-607)": "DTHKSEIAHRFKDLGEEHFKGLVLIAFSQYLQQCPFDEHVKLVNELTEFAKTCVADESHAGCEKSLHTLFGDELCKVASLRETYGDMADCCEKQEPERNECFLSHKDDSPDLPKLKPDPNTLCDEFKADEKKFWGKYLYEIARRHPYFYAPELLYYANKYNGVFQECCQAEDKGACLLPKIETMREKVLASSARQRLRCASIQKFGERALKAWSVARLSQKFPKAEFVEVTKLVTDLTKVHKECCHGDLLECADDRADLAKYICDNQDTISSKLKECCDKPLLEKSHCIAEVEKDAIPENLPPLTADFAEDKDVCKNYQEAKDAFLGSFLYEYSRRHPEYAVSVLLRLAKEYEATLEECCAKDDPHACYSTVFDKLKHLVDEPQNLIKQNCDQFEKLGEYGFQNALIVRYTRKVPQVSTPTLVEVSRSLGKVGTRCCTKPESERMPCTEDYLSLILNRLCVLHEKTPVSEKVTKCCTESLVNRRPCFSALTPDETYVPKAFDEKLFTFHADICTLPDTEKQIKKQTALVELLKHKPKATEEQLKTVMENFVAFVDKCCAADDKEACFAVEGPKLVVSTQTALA", "assay": "Photo-affinity labeling of defatted BSA with C15pacFA, click reaction with biotin-azide, Western blot", "assay_type": "binding", "settings": "incubation with C15pacFA, UV-irradiation and click reaction with biotin-azide", "quoted_text": "As a proof-of-concept that C15pacFA can be used to tag proteins with an affinity for fatty acids, defatted bovine serum albumin (BSA) was incubated with C15pacFA and subsequently UV-irradiated. Thereafter, the mixture was subjected to a click reaction, applying biotin-azide (see FIG. 5). […] CuSO4 serves as a source for Cu(I) that is required for the catalytic cycle of the [3+2] cyclo-addition and was formed in situ by the addition of the reducing agent TCEP.\nSamples were irradiated applying a 200 W high pressure mercury lamp (Oriel Photomax) equipped with a PYREX® glass filter to remove wavelengths below 350 nm. Samples were placed on ice at a distance from 35 cm from the light source. […] Samples were UV irradiated for 1 minute. […]"}, "[5]": {"tested_on": "membrane and cytosolic proteins of CHO-CGalT cells", "assay": "In vivo labeling of cells with C15pacFA, alexa488-azide click of membranes and cytosol, SDS-PAGE in-gel fluorescence", "assay_type": "cell-based", "settings": "membranes and cytosol after UV irradiation", "protocol": "FIG. 2. In vivo labeling of proteins interacting with lipids. CHO-CGalT cells were labeled with and without 100 μM C15pacFA for 16 hours. Where indicated, cells were UV irradiated. Total membranes were separated from cytosol. The cytosolic proteins were precipitated by CHCl3/MeOH precipitation and total membranes as well as the cytosolic precipitate were subjected to click reaction conditions using alexa488-azide or biotin-azide. Panel A, Proteins labeled with alexa488-azide were separated by SDS-PAGE and analyzed by in-gel fluorescence. […] The lanes were cut into ten gel pieces as indicated and analyzed by mass spectrometry as described herein. […]\nIn order to see whether pacFAs can be used to investigate protein-lipid interactions in vivo, we administered C15pacFA to cells. […] Both membranes and cytosol were subjected to click reaction conditions and samples were analyzed by SDS-PAGE and in-gel fluorescence (FIG. 2). […] 208 proteins were identified that were exclusively detected upon labeling cells with C15pacFA (FIG. 2, Panel D, lane III). […] Proteins that were exclusively detected upon labeling with C15pacFA and subsequent cross-linking (lane IV) are given in Table 2. […]"}, "lysozyme": {"target": "lysozyme (Gallus gallus, UniProt P00698)", "sequence (P00698 19-147)": "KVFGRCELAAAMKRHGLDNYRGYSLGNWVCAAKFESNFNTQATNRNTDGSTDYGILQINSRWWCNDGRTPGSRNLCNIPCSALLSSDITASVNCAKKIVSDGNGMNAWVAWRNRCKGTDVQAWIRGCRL", "assay": "Photo-affinity labeling of lysozyme with C15pacFA (specificity control), click reaction with biotin-azide, Western blot", "assay_type": "binding", "settings": "same conditions as BSA; protein known not to interact with lipids", "protocol": "FIG. 5. Panel A, Proof-of-concept for the specific interaction of pacFA with a fatty acid binding protein. An ethanolic solution of C15pacFA was added to a solution of defatted-BSA or lysozyme in PBS as described above. After incubating for 1 hour at room temperature samples were UV-irradiated and 20 μl were subjected to click reaction with biotin-azide. Samples were analyzed by SDS-PAGE, followed by Western blotting and detection via NeutrAvidin coupled to horse radish peroxidase. Panel B, SDS-PAGE and subsequent staining with Coomassie brilliant blue.\nSerum albumin binds and transports fatty acids. As a proof-of-concept that C15pacFA can be used to tag proteins with an affinity for fatty acids, defatted bovine serum albumin (BSA) was incubated with C15pacFA and subsequently UV-irradiated. […]\nSamples were irradiated applying a 200 W high pressure mercury lamp (Oriel Photomax) equipped with a PYREX® glass filter to remove wavelengths below 350 nm. […] An ethanolic solution of 10-azi stearic acid (10-ASA) was irradiated under the conditions described above and the loss of absorption at 349.5 nm was monitored (FIG. 9, Panel A). […] To exclude degradation of proteins under these conditions a 1 mg/ml solution of BSA was irradiated up to 5 minutes and analyzed by gel electrophoresis and subsequent Coomassie staining (FIG. 9, Panel B). […]"}, "CHO-CGalT cells [6]": {"tested_on": "CHO-CGalT cells", "assay": "Morphology of cells after labeling with pacFAs", "assay_type": "cell-based", "settings": "cells labeled with pacFA"}}}
{"smiles": "C#CCc1ccccc1", "note": "[3-phenyl-1-propyne]", "values": [{"measurement": "stability towards UV irradiation", "setting": "[1]", "result": "stability of alkynes towards UV irradiation"}]}
{"smiles": "CCCCCCCCC1(CCCCCCCCC(=O)O)N=N1", "note": "[10-ASA, 10-azi-stearic acid]", "values": [{"measurement": "activation of the photoactivatable group", "setting": "[2]", "result": 95, "unit": "%"}]}
{"smiles": "C#CCCCC1(CCCCCCCCC(=O)O)N=N1", "note": "[C15pacFA, 9-(3-pent-4-ynyl-3-H-diazirin-3-yl)-nonanoic acid]", "values": [{"measurement": "fluorescent structures after click reaction with alexa-azide", "setting": "HeLa cells", "result": "Fluorescent structures were only visible in the UV irradiated samples"}, {"measurement": "incorporation into sphingomyelin (SM)", "setting": "CHO-CGalT cells [3]", "result": "No significant incorporation"}, {"measurement": "incorporation into phosphatidylcholine (pacPC species)", "setting": "CHO-CGalT cells [3]; precursor ion scan 184 Da", "result": "led to additional peaks corresponding to pacPC species"}, {"measurement": "labeling of BSA", "setting": "[4]", "result": "BSA could be labeled"}, {"measurement": "proteins labeled by photo-affinity labeling (in-gel fluorescence)", "setting": "[5]", "result": "not only membrane proteins were labeled by means of photo-affinity labeling but also cytosolic proteins"}, {"measurement": "labeling of lysozyme", "setting": "lysozyme", "result": "no labeling of lysozyme was observed"}, {"measurement": "morphological differences after labeling", "setting": "CHO-CGalT cells [6]", "result": "No morphological differences were observed"}]}
{"smiles": "C#CCCCC1(CCCCCCCCC(=O)O)N=N1", "note": "[C16pacFA, 9-(3-Pent-4-ynyl-3-H-diazirin-3-yl)-nonanoic acid]", "values": [{"measurement": "incorporation into sphingomyelin (SM)", "setting": "CHO-CGalT cells [3]", "result": "no incorporation"}, {"measurement": "morphological differences after labeling", "setting": "CHO-CGalT cells [6]", "result": "No morphological differences were observed"}]}
